Measured values: patent US11028141B2, “Therapeutic for the prevention and/or treatment of weight gain and/or diabetes” (priority 2016, dated 2021)

Legend:
NCI H716 cells = format: cell-based, human
Method: Identifying the microbial-derived compound responsible for GLP-1 stimulatory activity—To narrow down the bacterial component responsible for GLP-1 secretion in vitro, and for metabolic disease marker modulation in vivo, size fractionation studies were performed using Amicon centrifuge filtration tubes and exposure of the fractions on NCI H716 cells.
To further identify the component responsible for the activity, bacterial supernatants were analyzed using a Thermo Orbitrap Fusion mass spectrometer equipped with an Easy Nanospray HPLC system.

GLUTag cells = test: GLP-1 secretion by GLUTag cells, measured by ELISA; format: cell-based, murine; settings: cell-free supernatants or PMA positive control on GLUTag cells
Method: S. epidermidis has GLP-1 stimulatory activity in vitro in NCI H716 and GLUTag cells—In order to identify bacterial strains capable of eliciting GLP-1 secretion, 1500 microbial supernatants were screened using human NCI H716 cells. […] Following 16S rRNA sequencing, all 45 stimulatory strains came back as strains of S. epidermidis. Incubation of cell-free supernatants from two of the stimulatory strains with the highest activity, S. epidermidis JA1 and JA8 on NCI H716 cells stimulated a release of 3155±276 pM and 2518±141 pM GLP-1, respectively (FIG. 6A). GM17 media control and the PMA positive control had GLP-1 levels of 565±188 pM and 1767±120 pM GLP-1, respectively, indicating an approximate 2-fold increase in activity by JA1 over the positive PMA control. It was confirmed that JA1 and JA8 could stimulate GLP-1 secretion in a second model, murine GLUTag cells. S. epidermidis JA1 and JA8 led to the release of 1123±107 pM and 984±40 pM GLP-1, respectively (FIG. 6B). The GM17 media control and the PMA positive control had GLP-1 levels of 327±35 pM and 305±14 pM, respectively, indicating no real stimulation by PMA. […] None of the S. epidermidis bacterial cell-free supernatants had detectable toxicity on NCI H716 (FIG. 6C) and GLUTag (FIG. 6D) cells, as determined by a PrestoBlue resazurin-based analysis which measures aerobic respiration as an indicator of cell viability.

For MAADIISTIGDLVKWIIDTVNKFTKK [24_25insT], the “GLP-1 stimulatory activity (GLP-1)” value (NCI H716 cells; 20 μM peptide, NCI H716 cells) was 1283.5 ± 798 pM and the “GLP-1 stimulatory activity of synthesized peptides” value (NCI H716 cells; varying concentrations, NCI H716 cells) was “activity”.

In the case of CCCCCCCCCCCCCC(=O)O[C@@H]1[C@@H](C)[C@@]2(O)[C@@H](C=C(CO)C[C@]3(O)C(=O)C(C)=C[C@@H]23)[C@@H]2C(C)(C)[C@]12OC(C)=O [PMA, reference compound], the “release of GLP-1” value (NCI H716 cells; cell-free supernatants or PMA positive control on NCI H716 cells) was 1767 ± 120 pM and the “release of GLP-1” value (GLUTag cells) was 305 ± 14 pM.
